Source: US10385321B2, “MRP-14 targeting peptides and uses thereof” (priority 2016, dated 2019)
Entries after “also recorded” stand apart in the source; their conditions may differ. Where two headings read alike, the source gives them in different places. Positions of bridges follow the written chain, without caps; N, C: chain ends. Residues, ends and D or L forms follow the SMILES beside them. *: point of attachment. X1 = [N-]=[N+]=NC[C@H](NC(=O)CCC(=O)NCCCOCCOCCOCCCN*)C(=O)O

What was measured:
MRP-14 [1] = target: T1, MRP-14 (Homo sapiens, UniProt P06702); test: SPR binding of peptides to immobilized His-tagged MRP-14; details: for SPR binding behaviour (in words): sensorgrams, immobilized MRP-14
T1 construct: purchased Novus Biologicals
T1 sequence (P06702 1-114): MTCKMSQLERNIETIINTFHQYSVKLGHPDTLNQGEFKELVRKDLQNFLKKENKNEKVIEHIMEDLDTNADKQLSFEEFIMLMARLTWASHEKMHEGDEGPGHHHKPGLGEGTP
Description: Shortlisted MRP-14 targeting peptides (MTPs) were synthesized with a GGGS spacer and C-terminal amidation (Genscript) and their binding affinities characterized by SPR using Biacore T100 (GE Healthcare). PBST (0.05% Tween 20), pH 7.4 containing […] ethylenediaminetetraacetic acid (EDTA) was used as the running buffer. NTA sensor chips (GE Healthcare) were charged with 0.5 mM NiCl2 solution for 2 minutes at a flowrate of 10 μL/min, then 10 μg/mL His-tagged MRP-14 was bound for 2 minutes at 10 μL/min. For testing affinity to MRP-8/14, untagged MRP-8 (Novus Biologicals) was premixed in a 1:1 ratio with His-tagged MRP-14 for 3 hours in the presence of 0.1 mM CaCl2. Peptides at concentrations ranging from 6.25 μM to 100 μM diluted in running buffer were then injected at 30 μL/min for 1 minute association followed by 1 minute dissociation. Affinity was calculated by fitting a saturation binding curve to the equilibrium response vs. peptide concentration graph.
Their binding affinity to MRP-14 was then quantified using surface plasmon resonance (SPR) with an NTA sensor chip. After charging with Ni^2+, His-tagged MRP-14 was immobilized on the chip.

MRP-14 [2] = target: T1, MRP-14; test: Phage ELISA on MRP-14-coated plates; format: binding; details: BSA as background
Description: Phage specificity for MRP-14 was verified by performing an ELISA. Polysorp 96-well plates (Nunc) were coated with 50 μL of 50 μg/mL MRP-14 in 0.1 M NaHCO3, pH 8.6 in a humidified chamber overnight at 4° C. The coated wells and additional wells for phage dilutions were blocked with 5 mg/mL BSA in 0.1 M NaHCO3, pH 8.6 for 1 hour at 4° C. After washing 6 times with TBST (0.5% Tween 20), 8 serial fourfold dilutions from 10^12 phages/mL down to 6×10^7 phages/mL were performed in blocked wells then 100 μL of the phages added to MRP-14-coated wells and incubated for 1 hour at room temperature. […] Finally, HRP activity was detected using 100 μL 2,2′-azino-bis(3-ethylbenzothiazoline-6-sulfonic acid) diammonium salt (ABTS) colorimetric substrate solution (Life Technologies) at room temperature for 30 minutes. Absorbance was measured at 410 nm using a Tecan Infinite 200 plate reader
To narrow down the peptide library to the ones with highest affinity, an enzyme-linked immunosorbent assay (ELISA) was performed with the isolated phages. […] Bound phage was detected using horseradish peroxidase (HRP)-labeled anti-M13 antibodies followed by addition of 2,2′-azino-bis(3-ethylbenzothiazoline-6-sulfonic acid) diammonium salt (ABTS) substrate (FIG. 1). […]

[3] = system: platelet thrombi in anticoagulated blood on collagen-coated capillaries; test: Ex vivo shear-induced thrombus formation in perfusion (flow) chamber; details: for effect on shear-induced thrombus formation: particles 50 μg/mL, arterial shear rate 600 s^−1, versus PBS only control
Description: A perfusion chamber (Portola Pharmaceuticals) was used to evaluate the effect of particles on thrombus formation time. Factor Xa inhibitor anticoagulated blood was labeled with […] Rhodamine 6G (Sigma-Aldrich) for 10 minutes. Particles were added at a final concentration of 50 μg/mL and then the blood perfused through human type III collagen-coated rectangular capillaries at an arterial shear rate of 600 s^−. Thrombus formation under flow was then visualized in real time and average fluorescence of platelet aggregation over time quantified.
Particles were added before perfusion at a concentration of 50 μg/mL, and visualization of thrombus formation was achieved through fluorescence signal from cells labeled with Rhodamine 6G (FIG. 5A). After imaging, average pixel intensity of platelet aggregates over time was quantified (FIG. 5B). […] This is a concern when using nanoparticles to target coagulation factors such as platelets and fibrin due to potential incorporation into the coagulation cascade and further aggregation, as illustrated by the use of such particles for mediating hemostasis.

MRP-8/14 = MRP-8/14 (Homo sapiens, UniProt P06702); test: biochemical
Description: Shortlisted MRP-14 targeting peptides (MTPs) were synthesized with a GGGS spacer and C-terminal amidation (Genscript) and their binding affinities characterized by SPR using Biacore T100 (GE Healthcare). PBST (0.05% Tween 20), pH 7.4 containing 50 ethylenediaminetetraacetic acid (EDTA) was used as the running buffer. NTA sensor chips (GE Healthcare) were charged with 0.5 mM NiCl2 solution for 2 minutes at a flowrate of 10 μL/min, then 10 μg/mL His-tagged MRP-14 was bound for 2 minutes at 10 μL/min. […] Peptides at concentrations ranging from 6.25 μM to 100 μM diluted in running buffer were then injected at 30 μL/min for 1 minute association followed by 1 minute dissociation. Affinity was calculated by fitting a saturation binding curve to the equilibrium response vs. peptide concentration graph.

[4] = system: thrombi in carotid artery; test: Photochemical injury mouse model of thrombosis, Maestro fluorescence imaging of carotid arteries; format: in vivo, C57BL/6 mice; details: sCy5-labeled particles 200 μg i.v. before injury; n=3; contralateral artery as control
Description: 8-9 week old male C57BL/6 mice were anesthetized by intraperitoneal injection of 62.5 mg/kg sodium pentobarbital. After anesthesia, peptide-targeted and untargeted TMV particles (200 μg/100 μL) were injected intravenously followed by dissection of the mice to expose the right common carotid artery. Rose Bengal dye (10 mg/mL in PBS) was then administered via tail vein injection and a 540 nm green laser light (1.5 mW, Melles Griot) placed 5 cm from the artery was used to stimulate photochemical injury and induce thrombus formation. A Doppler flow probe (Transonic Systems) was placed under the artery and used to monitor blood flow. The mice were sacrificed after vessel occlusion. The artery and the contralateral control were excised and fixed in formalin, then imaged by Maestro fluorescence imaging to determine targeting of the particles (see below).
(§1) The red fluorescence from sCy5 was imaged using Maestro imager, with 800 ms exposure time for the arteries and 400 ms exposure time for the organs. The signal was filtered with 576 to 621 nm excitation and 635-nm longpass emission filters.
Progressing to the mouse model, the particles were first injected intravenously, then thrombosis was induced through photochemical injury of the carotid artery, specifically through reactive oxygen species formation from the reaction of green laser light with injected Rose Bengal dye. A flow probe was used to monitor the development of thrombosis, and the arteries along with their contralateral control were excised following occlusion of the vessel.

[5] = sCy5-labeled particles i.v.; brain, lungs, heart, kidneys, spleen, liver
Description: 8-9 week old male C57BL/6 mice were anesthetized by intraperitoneal injection of 62.5 mg/kg sodium pentobarbital. After anesthesia, peptide-targeted and untargeted TMV particles (200 μg/100 μL) were injected intravenously followed by dissection of the mice to expose the right common carotid artery. […] Additionally, to study the biodistribution of the particles, the brain, heart, lungs, kidneys, spleen, and liver were also excised and imaged with Maestro imager.
as §1
Biodistribution was investigated concurrently with the photochemical injury model. The brain, lungs, heart, kidneys, spleen, and liver were collected and particle clearance examined through Maestro imaging (FIG. 6A).

[6] = kinetic fitting, 390.625 nM to 12.5 μM of MTP6

Chain of MRP-8/14 (P05109 whole entry partner, one chain of several): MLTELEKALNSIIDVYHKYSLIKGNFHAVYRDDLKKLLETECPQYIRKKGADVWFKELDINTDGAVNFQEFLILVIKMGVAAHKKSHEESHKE

For `C[C@H](N)C(=O)N[C@H]1CSSC[C@@H](C(=O)NCC(=O)NCC(=O)NCC(=O)N[C@@H](CO)C(=O)O)NC(=O)[C@H](CO)NC(=O)[C@H](Cc2c[nH]cn2)NC(=O)[C@H](CC(N)=O)NC(=O)[C@H](CC(N)=O)NC(=O)[C@H](CCCCN)NC(=O)[C@@H]2CCCN2C(=O)[C@H](CCCNC(=N)N)NC1=O` [MTP10], the “SPR binding behaviour (in words)” value (MRP-14 [1]) was “did not really associate with MRP-14” and the “phage binding to MRP-14 (in words)” value (MRP-14 [2]) was “one of the best peptides”.

For `CC(C)C[C@@H]1NC(=O)CNC(=O)[C@H]([C@@H](C)O)NC(=O)[C@@H]2CCCN2C(=O)[C@@H](NC(=O)[C@H](C)N)CSSC[C@@H](C(=O)NCC(=O)NCC(=O)NCC(=O)N[C@@H](CO)C(N)=O)NC(=O)[C@H](C)NC(=O)[C@H](Cc2c[nH]cn2)NC(=O)[C@H](Cc2c[nH]cn2)NC1=O` [MTP9] (H-ACPTGLHHACGGGS-NH2; disulfide 2-10 (inferred); N-terminus assumed), the “SPR binding behaviour (in words)” value (MRP-14 [1]) was “quick initial interaction followed by a slower binding phase”.

With “MDPHAHNGGGS [Scrambled, reference compound]” the “Kd (dissociation constant from SPR measurements with MRP-14)” value (MRP-14 [1]; saturation binding curve fit of equilibrium response, peptides 6.25 μM to 100 μM, NTA chip) was “no” and the “SPR binding behaviour (in words)” value (MRP-14 [1]) was “low non-specific binding”.

With `CC(C)[C@@H]1NC(=O)[C@H](CO)NC(=O)[C@H](CC(N)=O)NC(=O)[C@@H](NC(=O)[C@H](C)N)CSSC[C@@H](C(=O)NCC(=O)NCC(=O)NCC(=O)N[C@@H](CO)C(N)=O)NC(=O)[C@H](Cc2c[nH]cn2)NC(=O)[C@H](Cc2c[nH]cn2)NC(=O)[C@H](CCC(N)=O)NC(=O)[C@H](Cc2c[nH]cn2)NC1=O` [MTP6] (H-ACNSVHQHHCGGGS-NH2; disulfide 2-10 (inferred); N-terminus assumed) the Kd (MRP-14 [1]) was 39.6 µM, the “effect on shear-induced thrombus formation” value [3] was “does not appear to block involvement of MRP-14 in thrombosis” and the Kd (MRP-8/14) was 57.6 µM.

With `CC(C)[C@@H]1NC(=O)[C@H](CO)NC(=O)[C@H](CC(N)=O)NC(=O)[C@@H](NC(=O)[C@H](C)N)CSSC[C@@H](C(=O)NCC(=O)NCC(=O)NCC(=O)N[C@@H](CO)C(=O)NCCCOCCOCCOCCCNC(=O)CCC(=O)N[C@@H](CN=[N+]=[N-])C(=O)O)NC(=O)[C@H](Cc2c[nH]cn2)NC(=O)[C@H](Cc2c[nH]cn2)NC(=O)[C@H](CCC(N)=O)NC(=O)[C@H](Cc2c[nH]cn2)NC1=O` [MTP6-N3] (H-ACNSVHQHHCGGGS-X1; disulfide 2-10; N-terminus assumed) the Kd (MRP-14 [1]; saturation binding curve fit of equilibrium response, peptides 6.25 μM to 100 μM, NTA chip, read-out: Kd (dissociation constant from SPR measurements with MRP-14)) was 55.7 µM.

B1: TMV-MTP6: MTP6-N3 attached to the exterior of tobacco mosaic virus by CuAAC, approximately 400 MTP6 per particle; sCy5-labeled for imaging (conjugate)
peptide: ACNSVHQHHCGGGS
chain: SYSITTPSQFVFLSSAWADPIELINLCTNALGNQFQTQQARTVVQRQFSEVWKPSPQVTVRFPDSDFKVYRYNAVLDPLVTALLGAFDTRNRIIEVENQANPTTAETLDATRRVDDATVAIRSAINNLIVELIRGTGSYNRSSFESSSGLVWTSGPAT
For B1, the Kd (MRP-14 [1]; kinetic curve fitting instead of equilibrium fit, read-out: Kd (dissociation constant from SPR measurements with MRP-14), kinetic fit) was 0.754 µM, the “ka (association rate)” value (MRP-14 [1]; [6]) was 909.6 M⁻¹ s⁻¹ and the “kd (dissociation rate)” value (MRP-14 [1]; [6]) was 0.0006858 s⁻¹. The “aggregation of particles in blood” value ([3]; ex vivo flow model) was “no aggregation observed”, the “effect on shear-induced thrombus formation” value [3] was “some delay in thrombus onset; also recorded: no stimulation of thrombosis; also recorded: no significant effect on thrombosis” and the “targeting of thrombi (fluorescence signal in injured artery)” value [4] was “some success with imaging thrombi; also recorded: targeting was observed; also recorded: targeted TMV-MTP6 attachment to the thrombi and no nonspecific accumulation in the contralateral, uninjured artery”. For the same molecule, the “biodistribution / route of clearance” value [5] was “clearance predominantly through the liver”.
